For experiment [1], the system named is naïve CD4+ T cells. Nature of the experiment: In vitro TH-GM (GM-CSF-expressing TH) differentiation from naïve CD4+ T cells. Conditions: anti-CD3 and anti-CD28 plus cytokine or antibody. It counts as cell-based, mouse.
Method: Naïve CD4^+ T cells were primed with plate-bound anti-CD3 and soluble anti-CD28 in the presence of a combination of various cytokines and neutralizing antibodies as indicated. GM-CSF, IL-17 and IFN-γ expression was analyzed by intracellular staining (FIG. 13A) or RT-PCR (FIG. 13B)
GM-CSF and IFN-γ expression in naive CD4^+ T cells activated for 72 h with anti-CD3 alone or plus anti-CD28 (FIG. 14A). In FIG. 14B, sorted naïve CD4^+ T cells were stimulated with anti-CD3 and anti-CD28 in the presence of neutralizing antibodies against IL-12 and IFN-γ without or with the addition of IL-6. The frequencies of GM-CSF^+ and IL-17^+ cells were measured by intracellular staining (FIG. 14B). In FIG. 14C, naïve CD4^+ T cells from Stat3^+/+ and Stat3^−/− mice were polarized under conditions as indicated for 72 h. The frequencies of GM-CSF^+ and IL-17^+ cells were analyzed. In FIG. 14D, naïve CD4^+ T cells were activated with anti-CD3 and anti-CD28 in the presence of IL-2 or anti-IL-2. The frequencies of GM-CSF^+, IL-17^+ and IFN-γ^+ cells were analyzed.
Naïve CD4^+ T cells were primed with plate-bound anti-CD3 and soluble anti-CD28 in the presence of various concentration of IL-7 as indicated. GM-CSF and IFN-γ expression was analyzed by intracellular staining (FIG. 15A) or ELISA (FIG. 15B). In FIGS. 15C and 15D, Stat5^+/+ and Stat5^−/− naïve CD4^+ T cells were activated with anti-CD3 and anti-CD28 in the presence IL-7 for 3 days. GM-CSF, IL-17 and IFN-γ expression was analyzed by intracellular cytokine staining (FIG. 15C). GM-CSF secretion was measured by ELISA (FIG. 15D).
In FIG. 22E, naïve CD4^+ T cells were isolated and activated under neutral condition or TH-GM cell-favoring condition with the addition of different concentrations of STAT5 inhibitor for 3 days. GM-CSF and IFN-γ expression was analyzed by intracellular cytokine staining and flow cytometry.
Experiment [2] deals with STAT5. Nature of the experiment: Cytokine-induced STAT5 activation in CD4+ T cells, immunoblotting. In kind it is cell-based, mouse. As to conditions: for STAT5 activation (tyrosine phosphorylation): CD4+ T cells cultured with TGF-β and IL-6 3 days, starved 6 h. The method, then: (§1) In FIG. 10A, purified CD4^+ T cells were cultured with TGF-β and IL-6 for 3 days, followed by starvation for 6 h. Then cells were treated with various cytokines for 30 min, and pSTAT3 and pSTAT5 was determined by immunoblotting. STAT3 and STAT5 were further detected after stripping. […] The RT-PCR data were normalized to β-Actin. […] The frequencies of GM-CSF^+ and IL-17^+ cells among CD4^+CD44^hi T cells were measured by flow cytometry. *p<0.05.
(§2) FIGS. 17A-17C show flow cytometry of CD25 and CD127 on the surface of naïve CD4^+ T cells or cells activated with anti-CD3 and anti-CD28 at various time points as indicated. […] The RT-PCR data were normalized to β-Actin, and expression in naïve T cells activated for 2 h without cytokine was set to 1.
As shown in FIGS. 18A and 18B, CD4^+ T cells were activated with anti-CD3 and anti-CD28 for 3 days. […] The pTyr-STAT5 and β-Actin were detected by immunoblotting (FIG. 18A). GM-CSF mRNA expression was measured by RT-PCR (FIG. 18B). The RT-PCR data were normalized to β-Actin, and expression in cells without cytokine stimulation was set to 1. The ChIP assay shown in FIG. 18C was performed with normal IgG or STAT5-specific antibody. The binding of antibodies to Csf2 promoter region was detected by RT-PCR.
(§3) Next, the mechanism by which STAT5 regulates GM-CSF expression was investigated. […] Therefore, the effect of these two cytokines on GM-CSF induction in autoreactive T cells was further examined. […] GM-CSF and IL-17 production by CD4^+ T cells were analyzed by intracellular cytokine staining.
On the technique in general: A western blot detects proteins with antibodies after separation by electrophoresis.

In experiment [3] the test system is CD4+CD44hi T cells. Nature of the experiment: MOG35-55 challenge of splenocytes from immunized mice, GM-CSF expression. Conditions: MOG35-55 (20 μg/ml) plus cytokine, 48 h. In kind it is cell-based, mouse. The method, then:
as §1, §3

Experiment [4] concerns naïve CD4+ T cells. Nature of the experiment: In vitro TH17 differentiation. In kind it is cell-based, mouse. Conditions: data not shown. The method, then: CD4^+ T cells were obtained from spleens and lymph nodes by positive selection and magnetic separation (Miltenyi Biotech), followed by purification of naïve CD4^+ T cell population (CD4^+CD25^−CD62L^hiCD44^lo) sorted with FACS Aria. Naïve CD4^+ T cells were stimulated with plate-bound anti-CD3 (3 μg/ml; BD Pharmingen) and anti-CD28 (1 μg/ml; BD Pharmingen) in presence of different combinations of neutralizing antibodies and cytokines for 3˜4 days: for neutral conditions, no addition of any cytokine or neutralizing antibody; for TH1 conditions, IL-12 (10 ng/ml), and anti-IL-4 (10 μg/ml, BD Pharmingen); for TH17 conditions, hTGF-β (3 ng/ml), IL-6 (20 ng/ml), anti-IFN-γ (10 μg/ml, eBioscience), and anti-IL-4 (10 μg/ml); for an alternative TH17 conditions, IL-6 (20 ng/ml), IL-23 (10 ng/ml), IL-1β (10 ng/ml), anti-IFN-γ (10 μg/ml), and anti-IL-4 (10 μg/ml). […] Cells were acquired on the LSR II (BD Biosciences) and analyzed with FlowJo software (Tree Star).
Stat5 deletion (Cd4-cre; Stat5^f/−) mice was reported to develop peripheral lymphopenia, with a reduction of both CD4^+ and CD8^+ T cells (Yao et al., 2006). […] Furthermore, increased frequencies of IL-17^+ and IFN-γ^+ cells were detected among CD4^+ T cells in spleens of Stat5^−/− mice (FIG. 4C), which further support the idea that the resistance to EAE in Stat5^−/− mice is likely independent of TH1 and TH17 generation. […]

Experiment [5] deals with naïve CD4+ T cells. Nature of the experiment: GM-CSF mRNA expression in naïve CD4+ T cells stimulated with IL-2 or IL-7, RT-PCR. As to conditions: anti-CD3 and anti-CD28 plus cytokine. In kind it is cell-based, mouse. The method, then: as §2
The primer sequences are available upon request.

In experiment [6] the test system is CD62LhiCD44lo and CD62LloCD44hi T cells. Nature of the experiment: GM-CSF expression in sorted CD62LhiCD44lo and CD62LloCD44hi T cells, RT-PCR. Conditions: anti-CD3 and anti-CD28, cytokine 4 h. It counts as cell-based, mouse. The method, then: Splenocytes were obtained from MOG35-55/CFA-immunized Stat5^+/+ and Stat5^−/− mice before disease onset and challenged with MOG35-55 (20 μg/ml) in the absence or presence of IL-7 for 48 h. Frequencies of GM-CSF^+ and IL-17^+ cells among CD4^+CD44^hi T cells were measured by flow cytometry (FIG. 11A). GM-CSF secretion was measured by ELISA (FIG. 11B). Data represent two independent experiments with two to three mice per group. Splenic CD62L^hiCD44^lo and CD62L^loCD44^hi T cells from MOG35-55/CFA-immunized mice were sorted out. Cells were stimulated with anti-CD3 and anti-CD28 in the absence or presence of IL-7 for 4 h and then harvested for the analysis of GM-CSF expression by RT-PCR (FIG. 11C). *p<0.05
Total RNA was extracted from cells with RNeasy kit (Qiagen) according to the manufacturer's instruction. Complementary DNA (cDNA) was synthesized with Superscript reverse transcriptase (Invitrogen). Gene expressions were measured by 7500 real-time PCR system (Applied Biosystems) with SYBR qPCR kit (KAPA). Actinb, Gapdh or Rn18S was used as internal control. The primer sequences are available upon request.
Thus, CD62L^hiCD44^lo and CD62L^loCD44^hi T cells were sorted from Stat5^−/− mice and littermate controls during EAE development, and then activated cells in the presence or absence of IL-7.

In experiment [7] the test system is naïve CD4+ T cells. Conditions: El-Behi et al., 2011; cited from earlier work.

Turning to IL-1β: cytokine (R&D Systems), in experiment [1], the “GM-CSF-expressing cell differentiation from naïve CD4+ T cells” value (shortened to “GM-CSF-expressing cell differentiation”) is listed as “did not increase GM-CSF-expressing cell differentiation”. The “STAT5 activation (tyrosine phosphorylation)” value in experiment [2] (cytokine 30 min) is given as “neither IL-23 nor IL-1β seemed to be potent STAT5 stimulators”.
As for “IL-6: cytokine (R&D Systems), essential for TH17 differentiation”, the “GM-CSF-expressing cell differentiation” value in experiment [1] is recorded as “profound inhibitory effect”.
In the case of “IL-7: cytokine interleukin-7 (R&D Systems)”, the “frequency of GM-CSF+ T cells / GM-CSF expression in CD4+CD44hi T cells” value in experiment [3] is “significantly promoted GM-CSF expression”. Besides, the TH17 differentiation result in experiment [4] is given as “not observed to have a demonstrable effect”. Also, the “GM-CSF mRNA expression in naïve CD4+ T cells” value in experiment [5] was “upregulated GM-CSF mRNA expression”. Further, the “GM-CSF expression in CD62LhiCD44lo and CD62LloCD44hi T cells” value in experiment [6] was “promoted GM-CSF expression”. The “GM-CSF-expressing cell differentiation” value in experiment [1] is “strongly promoted”. Besides, the “STAT5 activation, Csf2 promoter binding and GM-CSF mRNA in activated CD4+ T cells” value in experiment [2] (CD4+ T cells activated 3 days, rested, then cytokine) is “induced STAT5 activation, Csf2 promoter binding and GM-CSF mRNA upregulation”. For the same molecule, the “STAT5 activation (tyrosine phosphorylation)” value in experiment [2] (cytokine 30 min) is “potently activated STAT5”. Further, the “STAT5 activation in naïve CD4+ T cells” value in experiment [2] (naïve CD4+ T cells, cytokine 30 min) is reported as “induced STAT5 activation”.
Take TGF-β: cytokine (R&D Systems): the GM-CSF expression entry in experiment [7] is recorded as “inhibits GM-CSF expression”.

B1: IL-23: cytokine (R&D Systems) (protein, UniProt Q9NPF7 20-189; P29460 23-328, looked up)
Interleukin-23 subunit alpha: RAVPGGSSPAWTQCQQLSQKLCTLAWSAHPLVGHMDLREEGDEETTNDVPHIQCGDGCDPQGLRDNSQFCLQRIHQGLIFYEKLLGSDIFTGEPSLLPDSPVGQLHASLLGLSQLLQPEGHHWETQQIPSLSPSQPWQRLLLRFKILRSLQAFVAVAARVFAHGAATLSP
Interleukin-12 subunit beta: IWELKKDVYVVELDWYPDAPGEMVVLTCDTPEEDGITWTLDQSSEVLGSGKTLTIQVKEFGDAGQYTCHKGGEVLSHSLLLLHKKEDGIWSTDILKDQKEPKNKTFLRCEAKNYSGRFTCWWLTTISTDLTFSVKSSRGSSDPQGVTCGAATLSAERVRGDNKEYEYSVECQEDSACPAAEESLPIEVMVDAVHKLKYENYTSSFFIRDIIKPDPPKNLQLKPLKNSRQVEVSWEYPDTWSTPHSYFSLTFCVQVQGKSKREKKDRVFTDKTSATVICRKNASISVRAQDRYYSSSWSEWASVPCS
As for B1, the “GM-CSF-expressing cell differentiation” value in experiment [1] is given as “did not increase GM-CSF-expressing cell differentiation”. In experiment [2] (cytokine 30 min), the “STAT5 activation (tyrosine phosphorylation)” value is “neither IL-23 nor IL-1β seemed to be potent STAT5 stimulators”.

The record behind these values is patent US10690666B2, “Methods and compositions for modulating TH-GM cell function” (National University of Singapore, priority 2014, dated 2020).
